Paper PMC10974743, “Design, Synthesis, and Biological Evaluation of Novel Phenoxy Acetic Acid Derivatives as Selective COX-2 Inhibitors Coupled with Comprehensive Bio-Pharmacological Inquiry, Histopathological Profiling, and Toxicological Scrutiny” (Molecules, 2024)
Read-outs that look alike come from different tables or passages of the source.

What was measured:
[1] = target: T1, human COX-2 (Homo sapiens, UniProt P35354); test: In vitro COX-2 inhibition assay (Cayman colorimetric COX inhibitor screening kit); details: for SI (COX-2 selectivity index): COX-1 (IC50)/COX-2 (IC50); for IC50: COX-2 IC50, mean ± SEM, n = 3
T1 sequence (P35354 18-604): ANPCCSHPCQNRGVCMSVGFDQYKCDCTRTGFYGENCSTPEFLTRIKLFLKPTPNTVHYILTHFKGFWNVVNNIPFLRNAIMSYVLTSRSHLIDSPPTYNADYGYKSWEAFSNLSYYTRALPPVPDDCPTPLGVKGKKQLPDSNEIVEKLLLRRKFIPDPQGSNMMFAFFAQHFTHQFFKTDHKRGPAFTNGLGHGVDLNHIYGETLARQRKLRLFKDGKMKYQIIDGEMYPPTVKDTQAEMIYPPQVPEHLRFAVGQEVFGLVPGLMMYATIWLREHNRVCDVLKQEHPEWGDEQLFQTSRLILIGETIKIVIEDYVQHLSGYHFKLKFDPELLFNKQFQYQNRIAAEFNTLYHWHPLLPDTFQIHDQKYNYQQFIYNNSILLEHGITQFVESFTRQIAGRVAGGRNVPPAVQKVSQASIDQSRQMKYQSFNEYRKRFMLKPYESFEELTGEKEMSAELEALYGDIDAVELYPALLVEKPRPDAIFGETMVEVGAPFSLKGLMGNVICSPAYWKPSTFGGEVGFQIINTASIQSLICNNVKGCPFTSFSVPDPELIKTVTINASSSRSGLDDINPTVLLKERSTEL
Method: (§1) The in vitro enzyme assays were performed at the Biochemistry Department, Cairo
(§2) General Hospital, Egypt. Cayman® colorimetric COX (ovine) inhibitor screening assay kit (Item
(§3) enzymes in presence of all newly compounds. Generally, this kit is dependent on the reductive
(§4) reaction of COX. A specific antibody binds to PGH2 produced by COX and is further quantified
(§5) by the ELISA technique as previously reported. After that, the selectivity index (SI) was calculated
as the following equation:
𝐒𝐞𝐥𝐞𝐜𝐭𝐢𝐯𝐢𝐭𝐲 𝐢𝐧𝐝𝐞𝐱 (𝐒𝐈) = 𝐈𝐂₅₀𝐨𝐟 𝐂𝐎𝐗 − 𝟏

[2] = target: T2, ovine COX-1 (Ovis aries, UniProt P05979); test: In vitro COX-1 inhibition assay (Cayman colorimetric COX inhibitor screening kit)
T2 sequence (P05979 25-600): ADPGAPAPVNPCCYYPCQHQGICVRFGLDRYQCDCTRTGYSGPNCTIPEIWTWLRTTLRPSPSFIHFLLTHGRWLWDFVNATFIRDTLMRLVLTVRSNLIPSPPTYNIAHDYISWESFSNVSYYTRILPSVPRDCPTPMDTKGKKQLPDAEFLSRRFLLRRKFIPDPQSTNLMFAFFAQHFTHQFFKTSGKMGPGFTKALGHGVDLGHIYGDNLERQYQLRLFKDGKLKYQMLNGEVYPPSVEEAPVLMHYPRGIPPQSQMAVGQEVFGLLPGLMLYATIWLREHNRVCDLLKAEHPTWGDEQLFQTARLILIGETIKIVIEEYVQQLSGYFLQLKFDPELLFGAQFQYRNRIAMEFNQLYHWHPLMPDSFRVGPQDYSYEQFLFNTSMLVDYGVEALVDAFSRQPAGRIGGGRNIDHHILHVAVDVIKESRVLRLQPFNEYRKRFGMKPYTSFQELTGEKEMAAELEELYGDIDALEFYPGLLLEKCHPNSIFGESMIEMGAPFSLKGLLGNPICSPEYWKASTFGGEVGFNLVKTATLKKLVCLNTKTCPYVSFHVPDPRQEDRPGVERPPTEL
Method: as §1, §2, §3, §4, §5
as the following equation:
𝐒𝐞𝐥𝐞𝐜𝐭𝐢𝐯𝐢𝐭𝐲 𝐢𝐧𝐝𝐞𝐱 (𝐒𝐈) = 𝐈𝐂₅₀𝐨𝐟 𝐂𝐎𝐗 − 𝟏

[3] = tested on: carrageenan-induced paw edema; test: Carrageenan paw edema test (paw thickness, paw weight); details: for Paw thickness difference: oral; for Paw thickness difference / Paw Weight Increase: mean ± SD, n = 6; for Percentage of inhibition of paw thickness: vs carrageenan group; for Paw Weight Increase: right vs left paw, after 5 h; on all read-outs here: test concentration or dose not given here
[4] = tested on: COX-2; details: cited from earlier work

Compound	SI (COX-2 selectivity index) [1]	IC50 [1]	IC50 [2]	Paw thickness difference ([3]; 1st h after carrageenan)	Percentage of inhibition of paw thickness ([3]; 1st h)	Paw thickness difference ([3]; 2nd h after carrageenan)	Percentage of inhibition of paw thickness ([3]; 2nd h)	Paw thickness difference ([3]; 3rd h after carrageenan)	Percentage of inhibition of paw thickness ([3]; 3rd h)	Paw thickness difference ([3]; 4th h after carrageenan)	Percentage of inhibition of paw thickness ([3]; 4th h)	Paw thickness difference ([3]; 5th h after carrageenan)	Percentage of inhibition of paw thickness ([3]; 5th h)	Paw Weight Increase [3]	melting point	IC50 [4]	IC50 ([4]; earlier work of the authors)	Selectivity for COX-2 over COX-1 [4]
O=C(O)COc1ccc(Br)cc1C=NNC(=O)c1ccccc1 [Compound 5d, 2-(2-((2-Benzoylhydrazineylidene)methyl)-4-bromophenoxy)acetic acid]	112.87	80 ± 10 nM	9030 ± 150 nM	1.37 ± 0.13 mm	30.57%	2.76 ± 0.24 mm	16.19%	3.56 ± 0.33 mm	15.67%	3.7 ± 0.32 mm	26.75%	3.90 ± 0.41 mm	26.51%	76.92 ± 3.89 ^abcd %	–	–	–	–
Cc1ccc(C(=O)NN=Cc2ccccc2OCC(=O)O)cc1 [Compound 5b, 2-(2-((2-(4-Methylbenzoyl)hydrazineylidene)methyl)phenoxy)acetic acid]	20.27	370 ± 60 nM	7500 ± 200 nM	–	–	–	–	–	–	–	–	–	–	–	222 to 223 °C	–	–	–
O=C(O)COc1ccccc1C=NNC(=O)CNc1ccc(Cl)cc1 [Compound 10c, 2-(2-((2-((4-Chlorophenyl)glycyl)hydrazineylidene)methyl)phenoxy)acetic acid]	79.57	70 ± 10 nM	5570 ± 120 nM	1.65 ± 0.22 mm	16.47%	2.64 ± 0.33 mm	19.99%	3.11 ± 0.29 mm	26.25%	3.81 ± 0.19 mm	24.47%	4.22 ± 0.28 mm	20.54%	69.01 ± 4.61 ^abcd %	–	–	–	–
O=C(O)COc1ccc(Br)cc1/C=N/NC(=O)CNc1ccccc1 [Compound 10d]	87.50	80 ± 10 nM	7000 ± 200 nM	1.55 ± 0.41 mm	21.37%	2.60 ± 0.21 mm	21.15%	2.93 ± 0.37 mm	30.56%	3.44 ± 0.37 mm	31.87%	3.73 ± 0.34 mm	29.71%	60.8 ± 4.27 ^abcd %	–	–	–	–
O=C(O)COc1ccccc1C=NNC(=O)CNC(=O)c1ccccc1 [Compound 13a, 2-(2-((2-(Benzoylglycyl)hydrazineylidene)methyl)phenoxy)acetic acid]	36.65	230 ± 60 nM	8430 ± 120 nM	–	–	–	–	–	–	–	–	–	–	–	210 to 211 °C	–	–	–
O=C(O)COc1ccc(Br)cc1C=NNC(=O)CNc1ccc(Cl)cc1 [Compound 10f, 2-(4-Bromo-2-((2-((4 chlorophenyl)glycyl)hydrazineylidene)methyl)phenoxy) acetic acid]	55.22	90 ± 10 nM	4970 ± 60 nM	1.77 ± 0.27 mm	10.39%	2.85 ± 0.46 mm	13.51%	3.24 ± 0.46 mm	23.17%	3.63 ± 0.48 mm	28.04%	3.78 ± 0.51 mm	28.80%	59.16 ± 2.72 ^abcd %	–	–	–	–
CS(=O)(=O)c1ccc(C2=C(c3ccccc3)C(=O)OC2)cc1 [rofecoxib]	–	–	–	–	–	–	–	–	–	–	–	–	–	–	–	500 nM	–	–
O=C(O)COc1ccccc1C=NNC(=O)Cc1ccccc1 [Compound 7a, 2-(2-((2-(2-Phenylacetyl)hydrazineylidene)methyl)phenoxy)acetic acid]	76.92	130 ± 60 nM	10000 ± 200 nM	–	–	–	–	–	–	–	–	–	–	–	214 to 215 °C	–	–	–
O=C(O)COc1ccccc1C=NNC(=O)c1ccccc1 [Compound 5a, 2-(2-((2-Benzoylhydrazineylidene)methyl)phenoxy)acetic acid]	10.31	970 ± 60 nM	10000 ± 100 nM	–	–	–	–	–	–	–	–	–	–	–	209 to 211 °C	–	–	–
Cc1ccc(NCC(=O)NN=Cc2ccccc2OCC(=O)O)cc1 [Compound 10b, 2-(2-((2-(4-Tolylglycyl)hydrazineylidene)methyl)phenoxy)acetic acid]	15.06	330 ± 60 nM	4970 ± 60 nM	–	–	–	–	–	–	–	–	–	–	–	236 to 238 °C	–	–	–
Cc1ccc(-c2ncc(Cl)cc2-c2ccc(S(C)(=O)=O)cc2)cn1 [etoricoxib]	–	–	–	–	–	–	–	–	–	–	–	–	–	–	–	5000 nM	–	–
O=C(O)COc1ccccc1C=NNC(=O)c1ccc(Cl)cc1 [Compound 5c, 2-(2-((2-(4-Chlorobenzoyl)hydrazineylidene)methyl)phenoxy)acetic acid]	111.53	130 ± 60 nM	14500 ± 200 nM	–	–	–	–	–	–	–	–	–	–	–	241 to 243 °C	–	–	–
O=C(O)COc1ccccc1/C=N/NC(=O)CNc1ccccc1 [Compound 10a]	19.00	500 ± 100 nM	9500 ± 200 nM	–	–	–	–	–	–	–	–	–	–	–	221 to 222 °C	–	–	–
O=C(O)COc1ccc(/C=C2\SC(N3N=C(c4ccc(Cl)cc4)CC3c3ccccc3)=NC2=O)cc1 (stereo not drawn) [XIV]	–	–	–	–	–	–	–	–	–	–	–	–	–	–	–	–	60 nM	–
NS(=O)(=O)c1ccc(-n2nc(C(F)(F)F)cc2-c2ccc(Br)cc2)cc1 [SC-558]	–	–	–	–	–	–	–	–	–	–	–	–	–	–	–	–	–	1900 fold
Cc1ccc(C(=O)NN=Cc2cc(Br)ccc2OCC(=O)O)cc1 [Compound 5e, 2-(4-Bromo-2-((2-(4-methylbenzoyl)hydrazineylidene)methyl)phenoxy)acetic acid]	100.00	70 ± 10 nM	7000 ± 200 nM	1.57 ± 0.4 mm	20.35%	2.53 ± 0.48 mm	23.28%	3.43 ± 0.10 mm	18.71%	3.55 ± 0.11 mm	29.59%	3.68 ± 0.15 mm	30.72%	47.55 ± 2.41 ^abcd %	–	–	–	–
O=C(O)COc1ccc(Br)cc1C=NNC(=O)CNC(=O)c1ccccc1 [Compound 13b, 2-(2-((2-(Benzoylglycyl)hydrazineylidene)methyl)-4-bromophenoxy)acetic acid]	76.38	130 ± 60 nM	9930 ± 120 nM	–	–	–	–	–	–	–	–	–	–	–	248 to 250 °C	–	–	–
Cc1ccc(NCC(=O)NN=Cc2cc(Br)ccc2OCC(=O)O)cc1 [Compound 10e, 2-(4-Bromo-2-((2-(p-tolylglycyl)hydrazineylidene)methyl)phenoxy)aceticacid]	67.83	60 ± 10 nM	4070 ± 120 nM	1.79 ± 0.39 mm	9.38%	3.00 ± 0.30 mm	9.01%	3.58 ± 0.17 mm	15.28%	3.98 ± 0.26 mm	21.24%	4.17 ± 0.24 mm	21.42%	64.95 ± 6.79 ^abcd %	–	–	–	–
